1 compound from patent publication EP2964612B1, “P[…] AND THEIR USE AS FLUORESCENT LABELS” (Illumina Cambridge Limited, priority 2013, dated 2014) can be followed below.

Each structure is given as a SMILES string.

As a reminder, the Kd is the free concentration of one partner at which half of the binding sites on the other are occupied at equilibrium, for simple one-to-one binding.

The target of this assay is T1, Pol 957 EA (Thermococcus sp., UniProt Q56366).
T1 sequence (Q56366 1-775): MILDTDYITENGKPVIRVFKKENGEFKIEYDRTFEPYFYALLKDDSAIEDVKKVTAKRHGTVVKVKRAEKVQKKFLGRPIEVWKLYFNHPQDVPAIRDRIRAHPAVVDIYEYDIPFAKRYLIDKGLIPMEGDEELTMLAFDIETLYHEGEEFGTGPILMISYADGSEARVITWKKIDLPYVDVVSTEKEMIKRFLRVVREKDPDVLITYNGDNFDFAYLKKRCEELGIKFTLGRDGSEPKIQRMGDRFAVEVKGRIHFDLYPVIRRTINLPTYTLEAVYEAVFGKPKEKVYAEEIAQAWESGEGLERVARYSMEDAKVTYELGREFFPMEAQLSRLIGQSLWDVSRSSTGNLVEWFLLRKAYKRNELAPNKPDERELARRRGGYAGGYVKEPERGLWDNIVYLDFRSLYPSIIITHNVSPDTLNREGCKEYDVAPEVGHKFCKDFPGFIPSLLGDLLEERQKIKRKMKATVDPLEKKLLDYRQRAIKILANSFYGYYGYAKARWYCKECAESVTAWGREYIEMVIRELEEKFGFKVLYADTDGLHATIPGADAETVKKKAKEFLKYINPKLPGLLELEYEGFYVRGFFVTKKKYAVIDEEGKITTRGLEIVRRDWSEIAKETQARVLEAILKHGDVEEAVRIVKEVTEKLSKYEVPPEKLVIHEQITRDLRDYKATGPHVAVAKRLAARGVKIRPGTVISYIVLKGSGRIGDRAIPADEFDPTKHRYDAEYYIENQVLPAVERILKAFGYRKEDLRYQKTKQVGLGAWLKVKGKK
As to the kind of experiment: Binding affinity of labelled 3'-azidomethylthymidine triphosphates to the polymerase (Table 2).

For the compound `Cc1cn([C@H]2C[C@H](OCN=[N+]=[N-])[C@@H](COP(=O)(O)OP(=O)(O)OP(=O)(O)O)O2)c(=O)[nH]c1=O` [Dark ffT], binding was characterised by a dissociation constant (Kd) of 550 nM.
